Assay results reported in US12685744B2, “Anti-fungal compositions and methods for using same” (The Research Foundation for The State University of New York, priority 2019, dated 2026).

Tests used:
[1] = test system: C. albicans wild type strain (SC5314); assay: Checkerboard synergy assay / MIC analysis, OD600; type: cell-based, Candida albicans
Experimental: (§1) The C. albicans wild type strain (SC5314) was cultured from frozen stock in Yeast Peptone Dextrose (YPD) and grown overnight at 30° C. with shaking at 225 rpm. Cell concentration was determined by hemocytometer and used to adjust the inoculum to 2×10^3 cells/ml in fresh YPD, which is 2× the desired final concentration. 50 ul of the inoculum was added to each well for a final culture volume of 100 ul. The final cell concentration was 1×10^3 cells/ml. The plate was sealed with plastic film and placed in a BioTek Synergy HT plate reader for 24 hours at 37° C. At each time point, the plate was shaken for 10 seconds prior to each OD600 reading.

[2] = test system: C. albicans strain SC5314 (Wild Type); assay: Growth of C. albicans with ManSIFG and 0.2M CaCl2, cell count by hemocytometer; type: cell-based, Candida albicans; conditions: 0.2M CaCl2 alone
Experimental: This signaling pathway is considered to regulate synthesis of chitin, an important carbohydrate which is part of the cell wall and septum, which is formed during cell division. C. albicans strain SC5314 (wild type) was cultured from frozen stock in Yeast Nitrogen Base media (YNB) with 2% glucose and grown overnight at 30° C. with shaking at 225 rpm. Cell concentration was determined by hemocytometer. […] […] (62.5 μg/ml) was added to test cultures but not to control cultures. The experiment was done in triplicates. The culture tubes were placed on a nutator inside a 30° C. incubator and grown for 24 hours. Time points were taken at 6, 12, and 24 hours. Cell concentration was monitored by hemocytometer at 6, 12, and 24-hour time points. Statistical analysis was done using two-tailed Student's t-Test.

[3] = test system: wildtype C. albicans strain SC5314; assay: Growth of C. albicans in YNB, cell count by hemocytometer; type: cell-based, Candida albicans
Experimental: (§2) The wildtype C. albicans strain SC5314 was cultured from frozen stock in Yeast Nitrogen Base (YNB) media with 2% glucose and grown overnight at 30° C. with shaking at 225 rpm as described previously (Chinnici et al., 2019). Cell concentration of the overnight culture was determined by hemocytometer. This was used to inoculate fresh cultures with a final starting concentration of 5×10^5 cells/ml in fresh YNB contain either no treatment (control) or various concentrations (31.25, 62.5, or 125 μg/ml) of the mannose disaccharide inhibitor. The cultures were run in duplicates and incubated at 30° C. on a nutator. Cell concentration was analyzed by counting on hemocytometer at 10, 14, 18, and 24-hour time points. Statistical analysis was done using two-tailed Student's t-Test.
as §2, with “previously.” for “previously (Chinnici et al., 2019).”, “62.5 μg/ml” for “various concentrations (31.25, 62.5, or 125 μg/ml)”, “D-Mannose.” for “the mannose disaccharide inhibitor.”

[4] = test system: Trychophyton rubrum (ATCC-MYA-4607); assay: MIC testing against toe nail fungus; type: cell-based, Trichophyton rubrum; conditions: various concentrations, SDB, 25° C., 6 days (FIG. 10)
Experimental: Effect […] on other fungal cells. Trichophyton rubrum is the fungal pathogen that causes onychomycosis or toe nail fungus. […] The experiment was performed in triplicates. […] A 50 ul inoculum was added to each well for a final culture volume of 100 ul. […] The plate was cultured for 6 days at 25° C. and then imaged using an iPhone camera.

[5] = test system: Candida parapsilosis (ATCC-22019) wild type strain; assay: Antifungal activity against C. parapsilosis; type: cell-based; conditions: at very low concentrations (FIG. 12)
Experimental: as §1, with “ManSIFG MIC analysis for Candida albicans and effects of CaCl2. A checkerboard synergy assay was used to test ManSIFG and CaCl2) each by themselves and in various combinations of each other. Drug concentrations to be tested were prepared 4× concentrated and dispensed into a sterile 96-well culture plate. 25 ul of each ManSIFG dilution was dispensed in each column, such that concentrations increased along the x-axis of the plate. 25 ul of each CaCl2 dilution was dispensed in each row, such that concentrations increased along the y-axis of the plate. The C.” for “The C.”
Effect of ManSIFG on additional Candida species. Other Candida species were tested. Candida parapsilosis (ATCC-22019) wild type strain was used. Methods are same as described above. […]

[6] = test system: Candida krusei, (ATCC-6258) wild type strain; assay: Antifungal activity against C. krusei; type: cell-based; conditions: even at very low concentrations (FIG. 13)
[7] = test system: Candida glabrata (ATCC-2001) wild type strain; assay: Antifungal activity against C. glabrata; type: cell-based; conditions: FIG. 14
[8] = test system: Candida tropicalis (ATCC-750) wild type strain; assay: Antifungal activity against C. tropicalis; type: cell-based; conditions: FIG. 15
[9] = test system: C. albicans strain SC5314 (Wild Type); assay: Germ tube / hypha formation of C. albicans induced by 20% FBS, count by hemocytometer; type: cell-based, Candida albicans; conditions: 62.5 μg/ml, 37° C., significantly (FIG. 3)

[Ca+2].[Cl-].[Cl-] [CaCl2, Calcium chloride]
antifungal effect of CaCl2 by itself ([1]; very high concentrations (FIG. 9)): has an antifungal effect | growth of C. albicans as compared to control cultures ([2]; 12 hours (FIG. 4A)): significantly inhibit | growth of C. albicans as compared to control cultures ([2]; 24 hours (FIG. 4B)): significantly inhibit

O=C[C@@H](O)[C@@H](O)[C@H](O)[C@H](O)CO [D-Mannose, reference compound]
growth of C. albicans wild type as compared to control cultures ([3]; D-Mannose 62.5 μg/ml, 10, 14, 18 and 24-hour time points): not inhibited

OC[C@H]1O[C@H](SC[C@H]2CNC[C@@H](O)[C@@H]2O)[C@@H](O)[C@@H](O)[C@@H]1O [ManSIFG, (2R,3S,4S,5S,6R)-2-((((3S,4R,5R)-4,5-dihydroxypiperidin-3-yl)methyl)thio)-6-(hydroxymethyl)tetrahydro-2H-pyran-3,4,5-triol]
inhibitory effect against Trychophoton rubrum [4]: no inhibitory effect | antifungal activity against Candida parapsilosis [5]: has antifungal activity | MIC ([1]; Candida albicans, SC5314, YPD, 37° C., 24 hours, OD600 (FIG. 7)): 31.2 to 62.5 µg/mL | effect of addition of CaCl2 on antifungal activity of ManSIFG ([1]; ManSIFG 7.81 μg/ml plus 100 mg/ml CaCl2 vs CaCl2 alone (FIG. 8)): improves the antifungal activity | antifungal activity against Candida krucei [6]: has antifungal activity | antifungal activity against Candida glabrata [7]: has antifungal activity | antifungal activity against Candida tropicalis [8]: has antifungal activity | formation of germ tubes as compared to control cultures ([9]; 12 hours): inhibited | formation of germ tubes as compared to control cultures ([9]; 24 hours): inhibited | growth of C. albicans wild type as compared to control cultures ([3]; 62.5 μg/ml, 10 hours, significantly (FIG. 2)): inhibited | growth of C. albicans, difference between control and inhibitor cultures ([3]; 62.5 μg/ml, later time points (14, 18, 24 hours)): no significant difference
